Patent US20240158446A1, “CYCLIC COMPOUND HAVING SELECTIVE INHIBITORY ACTION ON KRAS OVER HRAS AND NRAS” (CHUGAI SEIYAKU KABUSHIKI KAISHA, priority 2021, published 2024)

Key:
[1] = target: GDP-bound HRAS wild-type protein (Homo sapiens, UniProt P01112); assay: Binding to HRAS by surface plasmon resonance (SPR), Single Cycle Kinetics; settings: SPR; for HRAS/KRAS (ratio of KD value for HRAS to KD value for KRAS): GDP-bound HRAS wild-type protein vs GDP-bound KRAS wild-type protein
[2] = target: GDP-bound NRAS wild-type protein (Homo sapiens, UniProt P01111); assay: Binding to NRAS by surface plasmon resonance (SPR), Single Cycle Kinetics; settings: SPR; for NRAS/KRAS (ratio of KD value for NRAS to KD value for KRAS): GDP-bound NRAS wild-type protein vs GDP-bound KRAS wild-type protein
GDP-bound NRAS wild-type protein, sequence (P01111 whole entry): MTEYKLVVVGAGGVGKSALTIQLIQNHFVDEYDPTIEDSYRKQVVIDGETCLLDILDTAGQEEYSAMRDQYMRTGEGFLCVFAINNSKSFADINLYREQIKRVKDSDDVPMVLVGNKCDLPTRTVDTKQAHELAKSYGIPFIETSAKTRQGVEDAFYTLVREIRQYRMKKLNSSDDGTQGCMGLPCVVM

GDP-bound HRAS wild-type protein, sequence (P01112 whole entry): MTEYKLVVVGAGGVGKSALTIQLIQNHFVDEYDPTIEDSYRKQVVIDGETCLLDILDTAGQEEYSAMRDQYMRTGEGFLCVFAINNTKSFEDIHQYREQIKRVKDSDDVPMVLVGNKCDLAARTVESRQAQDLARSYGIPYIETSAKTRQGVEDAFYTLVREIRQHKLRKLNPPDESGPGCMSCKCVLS

| Compound | HRAS/KRAS (ratio of KD value for HRAS to KD value for KRAS) ([1]; KD ratio class) | NRAS/KRAS (ratio of KD value for NRAS to KD value for KRAS) ([2]; KD ratio class) | other results |
| --- | --- | --- | --- |
| CCO[C@@H]1C[C@H]2C(=O)NC3(CCC3)C(=O)N(C)[C@@H](C(CC)CC)C(=O)N(C)[C@H](C)CC(=O)N(C)[C@@H](CC3CC3)C(=O)N[C@@H]([C@@H](C)CC)C(=O)N(C)CC(=O)N(C)[C@H]3C/C=C\CCN(C3=O)[C@@H](Cc3ccc(F)cc3C)C(=O)N(C)CC(=O)N[C@@H](CCc3cc(F)c(C(F)(F)F)c(F)c3)C(=O)N2C1 [PP1520] | A (a compound having 10 or more and less than 20 is denoted as A) | A (a compound having 10 or more and less than 20 is denoted as A) | – |
| CCO[C@@H]1C[C@H]2C(=O)NC3(CCC3)C(=O)N(C)[C@@H](C(CC)CC)C(=O)N(C)[C@H](C)CC(=O)N(C)[C@@H](CC(C)C)C(=O)N[C@@H]([C@@H](C)CC)C(=O)N(C)CC(=O)N(C)[C@H]3C/C=C\CCN(C3=O)[C@@H](Cc3ccc(F)cc3C)C(=O)N(C)CC(=O)N[C@@H](CCc3cc(F)c(C(F)(F)F)c(F)c3)C(=O)N2C1 [PP1524] | B (a compound having 3 or more and less than 10 is denoted as B) | B (a compound having 3 or more and less than 10 is denoted as B) | – |
| CCO[C@@H]1C[C@H]2C(=O)NC3(CCC3)C(=O)N(C)[C@@H](C(CC)CC)C(=O)N(C)[C@H](C)CC(=O)N(C)[C@@H](CC(C)C)C(=O)N[C@@H]([C@@H](C)CC)C(=O)N(C)CC(=O)N(C)[C@H]3C/C=C\CCN(C3=O)[C@@H](Cc3ccc(F)cc3)C(=O)N(C)CC(=O)N[C@@H](CCc3cc(F)c(C(F)(F)F)c(F)c3)C(=O)N2C1 [PP1525] | A (a compound having 10 or more and less than 20 is denoted as A) | A (a compound having 10 or more and less than 20 is denoted as A) | – |
| CCO[C@@H]1C[C@H]2C(=O)NC3(CCC3)C(=O)N(C)[C@@H](C(CC)CC)C(=O)N(C)[C@H](C(=O)N3CCOCC3)CC(=O)N(C)[C@@H](CC3CC3)C(=O)N[C@@H]([C@@H](C)CC)C(=O)N(C)CC(=O)N(C)[C@H]3C/C=C\CCN(C3=O)[C@@H](Cc3ccc(F)cc3)C(=O)N(C)CC(=O)N[C@@H](CCc3cc(F)c(C(F)(F)F)c(F)c3)C(=O)N2C1 [PP1527] | A (a compound having 10 or more and less than 20 is denoted as A) | A (a compound having 10 or more and less than 20 is denoted as A) | – |
| CCO[C@@H]1C[C@H]2C(=O)NC3(CCC3)C(=O)N(C)[C@@H](C3CCCC3)C(=O)N(C)[C@H](C(=O)N(C)C)CC(=O)N(C)[C@@H](CC3CC3)C(=O)N[C@@H]([C@@H](C)CC)C(=O)N(C)CC(=O)N(C)[C@H]3C/C=C\CCN(C3=O)[C@@H](Cc3ccc(F)cc3C)C(=O)N(C)CC(=O)N[C@@H](CCc3cc(F)c(C(F)(F)F)c(F)c3)C(=O)N2C1 [PP1528] | B (a compound having 3 or more and less than 10 is denoted as B) | A (a compound having 10 or more and less than 20 is denoted as A) | – |
| CCO[C@@H]1C[C@H]2C(=O)NC3(CCC3)C(=O)N(C)[C@@H](C3CCCC3)C(=O)N(C)[C@H](C(=O)N(C)C)CC(=O)N(C)[C@@H](CC3CCCC3)C(=O)N[C@@H]([C@@H](C)CC)C(=O)N(C)CC(=O)N(C)[C@H]3C/C=C\CCN(C3=O)[C@@H](Cc3ccc(F)cc3C)C(=O)N(C)CC(=O)N[C@@H](CCc3cc(F)c(C(F)(F)F)c(F)c3)C(=O)N2C1 [PP1530] | B (a compound having 3 or more and less than 10 is denoted as B) | A (a compound having 10 or more and less than 20 is denoted as A) | – |
| C=CCCCCN(C)C(=O)[C@@H]1CC(=O)N(C)[C@@H](CC2CC2)C(=O)N[C@@H](CC=C)C(=O)N(C)CC(=O)N(C)[C@H]2C/C=C\CCN(C2=O)[C@@H](Cc2ccc(C(F)(F)F)cc2)C(=O)N(C)CC(=O)N[C@@H](CCc2cc(F)c(C(F)(F)F)c(F)c2)C(=O)N2C[C@H](OCC)C[C@H]2C(=O)NC2(CCC2)C(=O)N(C)[C@@H](C2CCCC2)C(=O)N1C [PP1554] | A (a compound having 10 or more and less than 20 is denoted as A) | A (a compound having 10 or more and less than 20 is denoted as A) | – |
| C=CC[C@@H]1NC(=O)[C@H](CC2CC2)N(C)C(=O)C[C@@H](C(=O)N(C)CC=C)N(C)C(=O)[C@H](C2CCCC2)N(C)C(=O)C2(CCC2)NC(=O)[C@@H]2C[C@@H](OCC)CN2C(=O)[C@H](CCc2cc(F)c(C(F)(F)F)c(F)c2)NC(=O)CN(C)C(=O)[C@H](Cc2ccc(C(F)(F)F)cc2)N2CC/C=C\C[C@@H](C2=O)N(C)C(=O)CN(C)C1=O [PP1557] | A (a compound having 10 or more and less than 20 is denoted as A) | A (a compound having 10 or more and less than 20 is denoted as A) | – |
| CCO[C@@H]1C[C@H]2C(=O)NC3(CC(C)(C)C3)C(=O)N(C)[C@@H](C3CCCC3)C(=O)N(C)[C@H](C(=O)N(C)C)CC(=O)N(C)[C@@H](CC3CCCC3)C(=O)N[C@@H]([C@@H](C)CC)C(=O)N(C)CC(=O)N(C)[C@H]3C/C=C\CCN(C3=O)[C@@H](Cc3ccc(C(F)(F)F)cc3)C(=O)N(C)CC(=O)N[C@@H](CCc3ccc(C(F)(F)F)c(OC)c3)C(=O)N2C1 [PP1565] | B (a compound having 3 or more and less than 10 is denoted as B) | A (a compound having 10 or more and less than 20 is denoted as A) | – |
| CCO[C@@H]1C[C@H]2C(=O)NC3(CCC3)C(=O)N(C)[C@@H](C3CCCC3)C(=O)N(C)[C@H](C(=O)N(C)CC)CC(=O)N(C)[C@@H](CC3CCCC3)C(=O)N[C@@H]([C@@H](C)CC)C(=O)N(C)CC(=O)N(C)[C@H]3C/C=C\CCN(C3=O)[C@@H](Cc3ccc(C(F)(F)F)cc3)C(=O)N(C)CC(=O)N[C@@H](CCc3ccc(C(F)(F)F)c(OC)c3)C(=O)N2C1 [PP1573] | A (a compound having 10 or more and less than 20 is denoted as A) | A (a compound having 10 or more and less than 20 is denoted as A) | – |
| CCCC[C@H]1C(=O)N[C@@H]([C@@H](C)CC)C(=O)N(C)CC(=O)N(C)[C@H]2C/C=C\CCN(C2=O)[C@@H](Cc2ccc(C(F)(F)F)cc2)C(=O)N(C)CC(=O)N[C@@H](CCc2cc(F)c(C(F)(F)F)c(F)c2)C(=O)N2C[C@H](OCC)C[C@H]2C(=O)NC2(CCC2)C(=O)N(C)[C@@H](C2CCCC2)C(=O)N(C)[C@H](C(=O)N(CC)CC)CC(=O)N1C [PP1576] | A (a compound having 10 or more and less than 20 is denoted as A) | AA (a compound having 20 or more is denoted as AA) | – |
| CCCOC[C@H]1C(=O)N[C@@H]([C@@H](C)CC)C(=O)N(C)CC(=O)N(C)[C@H]2C/C=C\CCN(C2=O)[C@@H](Cc2ccc(C)cc2)C(=O)N(C)CC(=O)N[C@@H](CCc2cc(F)c(C(F)(F)F)c(F)c2)C(=O)N2C[C@H](OCC)C[C@H]2C(=O)NC2(CC(C)(C)C2)C(=O)N(C)[C@@H](C2CCCC2)C(=O)N(C)[C@H](C(=O)N(C)CC)CC(=O)N1C [PP1577] | B (a compound having 3 or more and less than 10 is denoted as B) | B (a compound having 3 or more and less than 10 is denoted as B) | – |
| CCCOC[C@H]1C(=O)N[C@@H]([C@@H](C)CC)C(=O)N(C)CC(=O)N(C)[C@H]2C/C=C\CCN(C2=O)[C@@H](Cc2ccc(C)cc2)C(=O)N(C)CC(=O)N[C@@H](CCc2cc(F)c(C(F)(F)F)c(F)c2)C(=O)N2C[C@H](OCC)C[C@H]2C(=O)NC2(CC(C)(C)C2)C(=O)N(C)[C@@H](C2CCCC2)C(=O)N(C)[C@H](C(=O)N(CC)CC)CC(=O)N1C [PP1578] | A (a compound having 10 or more and less than 20 is denoted as A) | A (a compound having 10 or more and less than 20 is denoted as A) | – |
| CCO[C@@H]1C[C@H]2C(=O)NC3(CC(C)(C)C3)C(=O)N(C)[C@@H](C3CCCC3)C(=O)N(C)[C@@H](C(C)C)CC(=O)N(C)[C@@H](CC3CC3)C(=O)N[C@@H]([C@@H](C)CC)C(=O)N(C)CC(=O)N(C)[C@H]3C/C=C\CCN(C3=O)[C@@H](Cc3ccc(C(F)(F)F)cc3)C(=O)N(C)CC(=O)N[C@@H](CCc3cc(F)c(C(F)(F)F)c(F)c3)C(=O)N2C1 [PP1594] | A (a compound having 10 or more and less than 20 is denoted as A) | A (a compound having 10 or more and less than 20 is denoted as A) | – |
| CC[C@H](C)[C@@H]1NC(=O)[C@H](CC(C)C)N(C)C(=O)C[C@@H](C(=O)N(C)C)N(C)C(=O)[C@H](C2CCCC2)N(C)C(=O)C2(CC(C)(C)C2)NC(=O)[C@@H]2C[C@H](C)CN2C(=O)[C@H](CCc2ccc(C(F)(F)F)c(OC)c2)NC(=O)CN(C)C(=O)[C@H](Cc2ccc(C)cc2)N2CC/C=C\C[C@@H](C2=O)N(C)C(=O)CN(C)C1=O [PP1905] | – | – | HRAS/KRAS (KD ratio) ([1]; ratio of KD for GDP-bound HRAS wild-type protein to KD for KRAS): A (a compound having 10 or more and less than 20 is denoted as A); NRAS/KRAS (KD ratio) ([2]; ratio of KD for GDP-bound NRAS wild-type protein to KD for KRAS): A (a compound having 10 or more and less than 20 is denoted as A) |
| CCCN(C)C(=O)[C@@H]1CC(=O)N(C)[C@@H](C2CC2)C(=O)N[C@@H]([C@@H](C)CC)C(=O)N(C)CC(=O)N(C)[C@H]2C/C=C\CCN(C2=O)[C@@H](Cc2ccc(C(F)(F)F)cc2)C(=O)N(C)CC(=O)N[C@@H](CCc2cc(F)c(C(F)(F)F)c(F)c2)C(=O)N2C[C@H](OCC)C[C@H]2C(=O)NC2(CC(C)(C)C2)C(=O)N(C)[C@@H](C2CCCC2)C(=O)N1C [PP2037] | – | – | HRAS/KRAS (ratio of KD value for HRAS to KD value for KRAS) [1]: A (a compound having 10 or more and less than 20 is denoted as A); NRAS/KRAS (ratio of KD value for NRAS to KD value for KRAS) [2]: A (a compound having 10 or more and less than 20 is denoted as A) |
